The text below walks through data of paper PMC12169615, “Fluorescent 4‑Nitrobenzo-2-oxa-1,3-diazole-Coupled Bile Acids as Probe Substrates of Hepatic and Intestinal Bile Acid Transporters of the Solute Carrier Families SLC10 and SLCO” (Journal of Medicinal Chemistry, 2025).

Details of data set [1]: method as in Petzinger et al. To be noted: after in situ ileal perfusion, rat, within 120 min; ref Petzinger et al.; cited from earlier work.
The target in a further data set is T1, human ASBT (Homo sapiens, UniProt Q12908).
T1 sequence (Q12908 1-348): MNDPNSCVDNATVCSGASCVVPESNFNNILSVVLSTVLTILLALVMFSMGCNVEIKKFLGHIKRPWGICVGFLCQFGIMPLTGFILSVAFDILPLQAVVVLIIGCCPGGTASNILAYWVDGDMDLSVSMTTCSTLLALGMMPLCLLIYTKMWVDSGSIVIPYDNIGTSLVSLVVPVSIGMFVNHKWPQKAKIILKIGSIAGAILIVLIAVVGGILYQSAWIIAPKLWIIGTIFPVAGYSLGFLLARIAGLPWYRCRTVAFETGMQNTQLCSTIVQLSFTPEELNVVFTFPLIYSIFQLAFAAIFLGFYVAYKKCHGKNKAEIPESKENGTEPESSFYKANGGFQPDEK
As to the kind of experiment: cell-based.

The next data set has as its target T2, mouse mAsbt (Mus musculus, UniProt P70172).
T2 sequence (P70172 1-348): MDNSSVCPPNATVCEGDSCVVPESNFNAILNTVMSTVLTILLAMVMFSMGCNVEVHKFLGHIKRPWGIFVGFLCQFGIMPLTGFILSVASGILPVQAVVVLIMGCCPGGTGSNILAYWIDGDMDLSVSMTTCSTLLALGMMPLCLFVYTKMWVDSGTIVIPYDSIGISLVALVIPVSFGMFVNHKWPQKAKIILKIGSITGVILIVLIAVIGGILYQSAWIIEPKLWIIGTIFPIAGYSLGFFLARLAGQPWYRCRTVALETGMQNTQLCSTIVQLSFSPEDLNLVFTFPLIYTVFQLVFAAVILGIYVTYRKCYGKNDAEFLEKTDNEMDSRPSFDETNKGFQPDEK
As to the kind of experiment: cell-based.

Method for human ASBT: (§1) HEK293 cells stably expressing human NTCP (A), mouse mNtcp (B), human ASBT (C), or mouse mAsbt (D) were used for transport experiments with 3α-NBD-GCA (16d) as the substrate. Fluorescence data in the absence of inhibitors were set as 100% and the fluorescence levels in sodium-free transport buffer were set to 0%. […] Half-maximal inhibitory concentrations (IC50) were calculated by nonlinear regression analysis.
(§2) For quantitative transport experiments, cells were seeded onto polylysine-coated 96-well plates and grown to confluence over 72 h at 37 °C. Then, cells were washed three times with phosphate-buffered saline (PBS), containing 137 mM NaCl, 2.7 mM KCl, 1.5 mM, KH2PO4, and 7.3 mM Na2HPO4 (pH 7.4) followed by preincubation in sodium transport buffer (STB) containing 142.9 mM NaCl, 4.7 mM KCl, 1.2 mM MgSO4, 1.2 mM KH2PO4, 1.8 mM CaCl2, and 20 mM HEPES (pH 7.4). For transport assays under sodium-free conditions (-Na^+), sodium chloride of the STB was substituted with equimolar concentrations of choline chloride. […] Then, transport experiments were started by adding 20 μL STB containing 125 μM of 3α-NBD-GCA (final substrate concentration: 25 μM). All transport experiments were stopped after 10 min, if not otherwise indicated, by aspirating the transport buffer and washing the cells twice with ice-cold PBS. […]
Method for mouse mAsbt: as §1, §2

Consider `C[C@H](CCC(=O)NCCS(=O)(=O)O)[C@H]1CC[C@H]2[C@@H]3[C@H](O)C[C@@H]4CC(Nc5ccc([N+](=O)[O-])c6nonc56)CC[C@]4(C)[C@H]3C[C@H](O)[C@]12C` (stereo partly drawn) [S4148], for which, in data set [1], the “Compound secreted into bile” value was 76%.

In the case of `Cc1c(C)c2c(c(C)c1O)CCC(C)(COc1ccc(CC3SC(=O)NC3=O)cc1)O2` (stereo not drawn) [troglitazone], the IC50 (commonly the concentration needed to halve the response being measured) against human ASBT stood at 19.5 µM; at mouse mAsbt, 18.9 µM.
